{
  "source": "patent US9169290B2",
  "about": "“Peptides and their use” (priority 2007, dated 2015)",
  "key": {"C. albicans": {"test_system": "C. albicans", "type": "cell-based, Candida albicans", "method": "(§1) Broth Dilution Antifungal Susceptibility Testing\n(§2) The sensitivity of relevant fungal strains to the peptides was determined using Clinical Laboratory Standard Institute (CLSI; formerly NCCLS) Approved Standards."}, "C. krusei": {"test_system": "C. krusei", "type": "cell-based, Candida krusei", "method": "as §1, §2"}, "C. parapsilosis": {"test_system": "C. parapsilosis", "type": "cell-based, Candida parapsilosis", "method": "as §1\nThe sensitivity of relevant fungal strains to the peptides was determined using Clinical Laboratory Standard Institute (CLSI; formerly NCCLS) Approved Standards. Fungal susceptibility was tested using “Reference Method for Broth Dilution Antifungal Susceptibility Testing of Filamentous Fungi; […];"}, "Malasezzia furfur": {"test_system": "Malasezzia furfur", "type": "cell-based", "method": "as §1, §2"}, "Trichophyton rubrum": {"test_system": "Trichophyton rubrum", "type": "cell-based", "method": "as §1, §2"}, "C. tropicalis": {"test_system": "C. tropicalis", "assay": "Broth dilution antifungal susceptibility testing of yeasts (CLSI M27-A), MIC", "type": "cell-based, Candida tropicalis", "details": "C. tropicalis strain ATCC750", "method": "as §1\nThe sensitivity of relevant fungal strains to the peptides was determined using Clinical Laboratory Standard Institute (CLSI; formerly NCCLS) Approved Standards. Fungal susceptibility was tested using “Reference Method for Broth Dilution Antifungal Susceptibility Testing of Filamentous Fungi; Approved Standard M38-P”, and yeast susceptibility was tested using “Reference Method for Broth Dilution Antifungal Susceptibility Testing of Yeasts; Approved Standard—Second Edition M27-A”."}, "[1]": {"details": "Candida spp. Type Strains MIC Data table, strain NCPF3953"}, "[2]": {"details": "C. parapsilosis strain ATCC22019"}, "[3]": {"details": "Malasezzia furfur strain DSM6170"}},
  "note": "Read-outs that look alike come from different tables or passages of the source. Ends that are not written are not given here.",
  "data": [
    {"molecule": "KKKKKKKKKKKKK [NP347]", "values": [
      {"measurement": "MIC", "setting": "C. albicans; C. albicans strain NCTC3179", "result": ">2048", "unit": "µM"}
    ]},
    {"molecule": "N=C(N)NCCC[C@H](NC(=O)[C@H](CCCNC(=N)N)NC(=O)[C@H](CCCNC(=N)N)NC(=O)[C@H](CCCNC(=N)N)NC(=O)[C@H](CCCNC(=N)N)NC(=O)[C@H](CCCNC(=N)N)NC(=O)[C@H](CCCNC(=N)N)NC(=O)[C@H](CCCNC(=N)N)NC(=O)[C@H](CCCNC(=N)N)NC(=O)[C@H](CCCNC(=N)N)NC(=O)[C@H](CCCNC(=N)N)NC(=O)[C@H](CCCNC(=N)N)NC(=O)[C@@H](N)CCCNC(=N)N)C(=O)O", "note": "[NP318]", "values": [
      {"measurement": "MIC, Candida albicans NCTC3179", "setting": "C. albicans", "result": 4, "unit": "µM"},
      {"measurement": "MIC", "setting": "C. krusei; C. krusei strain ATCC6258", "result": "<16", "unit": "µM"},
      {"measurement": "MIC", "setting": "C. krusei; C. krusei strain NCPF3953", "result": 8, "unit": "µM"},
      {"measurement": "MIC, Candida krusei NCPF3953", "setting": "C. krusei; [1]", "result": 8, "unit": "µM"},
      {"measurement": "MIC", "setting": "C. parapsilosis; [2]", "result": 256, "unit": "µM"},
      {"measurement": "MIC", "setting": "Malasezzia furfur; [3]", "result": 62.5, "unit": "µM"},
      {"measurement": "MIC", "setting": "Trichophyton rubrum; Trichophyton rubrum strain NCPF118", "result": ">2", "unit": "µM"}
    ]},
    {"molecule": "RRRWRRR [NP325, RRRWRRR]", "values": [
      {"measurement": "MIC, Candida albicans NCTC3179", "setting": "C. albicans", "result": ">2000", "unit": "µM"}
    ]},
    {"molecule": "PKTKAKAKAKKGKGKD [NP336]", "values": [
      {"measurement": "MIC, Candida albicans NCTC3179", "setting": "C. albicans", "result": ">2000", "unit": "µM"}
    ]},
    {"molecule": "KKKKK [NP343, KKKKK]", "values": [
      {"measurement": "MIC", "setting": "C. albicans", "result": ">2048", "unit": "µM"}
    ]},
    {"molecule": "KKKKKEGKKQEKMLD [NP333]", "values": [
      {"measurement": "MIC, Candida albicans NCTC3179", "setting": "C. albicans", "result": ">2000", "unit": "µM"}
    ]},
    {"molecule": "KKKKKKKKKKKKKKK [NP348]", "values": [
      {"measurement": "MIC", "setting": "C. albicans; C. albicans strain NCTC3179", "result": ">2048", "unit": "µM"}
    ]},
    {"molecule": "KKKKKKKKK [NP345]", "values": [
      {"measurement": "MIC", "setting": "C. albicans", "result": ">2048", "unit": "µM"}
    ]},
    {"molecule": "RRWWR [NP321, RRWWR]", "values": [
      {"measurement": "MIC, Candida albicans NCTC3179", "setting": "C. albicans", "result": ">2000", "unit": "µM"}
    ]},
    {"molecule": "RRVRVRR [NP307, RRVRVRR]", "values": [
      {"measurement": "MIC, Candida albicans NCTC3179", "setting": "C. albicans", "result": ">2000", "unit": "µM"},
      {"measurement": "MIC", "setting": "Trichophyton rubrum", "result": ">2", "unit": "µM"}
    ]},
    {"molecule": "GKKEKPEKKVKK [NP331]", "values": [
      {"measurement": "MIC, Candida albicans NCTC3179", "setting": "C. albicans", "result": ">2000", "unit": "µM"}
    ]},
    {"molecule": "RRWRWRR [NP326, RRWRWRR]", "values": [
      {"measurement": "MIC", "setting": "C. albicans", "result": 1024, "unit": "µM"},
      {"measurement": "MIC, Candida albicans ATCC24433", "setting": "C. albicans", "result": 1024, "unit": "µM"},
      {"measurement": "MIC, Candida albicans ATCC90028", "setting": "C. albicans", "result": 1024, "unit": "µM"},
      {"measurement": "MIC, Candida albicans NCTC3179", "setting": "C. albicans", "result": 2000, "unit": "µM"},
      {"measurement": "MIC", "setting": "C. krusei", "result": 128, "unit": "µM"},
      {"measurement": "MIC, Candida krusei NCPF3953", "setting": "C. krusei", "result": 128, "unit": "µM"}
    ]},
    {"molecule": "RRWRR [NP322, RRWRR]", "values": [
      {"measurement": "MIC, Candida albicans NCTC3179", "setting": "C. albicans", "result": ">2000", "unit": "µM"}
    ]},
    {"molecule": "ILRWPWWPWRRK-NH2 [NP354]", "values": [
      {"measurement": "MIC", "setting": "C. krusei; C. krusei strain NCPF3953", "result": ">2048", "unit": "µM"}
    ]},
    {"molecule": "N=C(N)NCCC[C@H](NC(=O)[C@H](CCCNC(=N)N)NC(=O)[C@H](CCCNC(=N)N)NC(=O)[C@H](CCCNC(=N)N)NC(=O)[C@H](CCCNC(=N)N)NC(=O)[C@H](CCCNC(=N)N)NC(=O)[C@H](CCCNC(=N)N)NC(=O)[C@H](CCCNC(=N)N)NC(=O)[C@H](CCCNC(=N)N)NC(=O)[C@H](CCCNC(=N)N)NC(=O)[C@@H](N)CCCNC(=N)N)C(=O)O", "note": "[NP350]", "values": [
      {"measurement": "MIC", "setting": "C. albicans", "result": 64, "unit": "µM"},
      {"measurement": "MIC", "setting": "C. krusei", "result": 8, "unit": "µM"}
    ]},
    {"molecule": "CC(=O)N[C@@H](CCCNC(=N)N)C(=O)N[C@@H](CCCNC(=N)N)C(=O)N[C@@H](CCCNC(=N)N)C(=O)N[C@@H](CCCNC(=N)N)C(=O)N[C@@H](CCCNC(=N)N)C(=O)N[C@@H](CCCNC(=N)N)C(=O)N[C@@H](CCCNC(=N)N)C(=O)N[C@@H](CCCNC(=N)N)C(=O)N[C@@H](CCCNC(=N)N)C(=O)N[C@@H](CCCNC(=N)N)C(=O)N[C@@H](CCCNC(=N)N)C(=O)N[C@@H](CCCNC(=N)N)C(=O)N[C@@H](CCCNC(=N)N)C(N)=O", "note": "[NP338]", "values": [
      {"measurement": "MIC, Candida albicans ATCC24433", "setting": "C. albicans", "result": 2, "unit": "µM"},
      {"measurement": "MIC, Candida albicans ATCC90028", "setting": "C. albicans", "result": 4, "unit": "µM"},
      {"measurement": "MIC, Candida albicans NCTC3179", "setting": "C. albicans", "result": 2, "unit": "µM"},
      {"measurement": "MIC", "setting": "C. krusei; C. krusei strain ATCC6258", "result": 2, "unit": "µM"},
      {"measurement": "MIC", "setting": "C. krusei; C. krusei strain NCPF3953", "result": 8, "unit": "µM"},
      {"measurement": "MIC, Candida krusei NCPF3953", "setting": "C. krusei; [1]", "result": 8, "unit": "µM"},
      {"measurement": "MIC", "setting": "C. parapsilosis; [2]", "result": 8, "unit": "µM"},
      {"measurement": "MIC", "setting": "C. parapsilosis; C. parapsilosis strain ATCC90018", "result": 128, "unit": "µM"},
      {"measurement": "MIC", "setting": "C. tropicalis", "result": 2, "unit": "µM"},
      {"measurement": "MIC", "setting": "Malasezzia furfur; [3]", "result": "<15.6", "unit": "µM"}
    ]},
    {"molecule": "KVRQGTLKKAR [NP335]", "values": [
      {"measurement": "MIC, Candida albicans NCTC3179", "setting": "C. albicans", "result": ">2000", "unit": "µM"}
    ]},
    {"molecule": "RRVVRR [NP305, RRVVRR]", "values": [
      {"measurement": "MIC, Candida albicans NCTC3179", "setting": "C. albicans", "result": ">2000", "unit": "µM"},
      {"measurement": "MIC", "setting": "Trichophyton rubrum", "result": ">2", "unit": "µM"}
    ]},
    {"molecule": "Poly-L-Lysine (MW 0.5-2 kDa) [NP112]", "values": [
      {"measurement": "MIC", "setting": "Malasezzia furfur; [3]", "result": "512 (μg/ml)"}
    ]},
    {"molecule": "N=C(N)NCCC[C@H](NC(=O)[C@H](CCCNC(=N)N)NC(=O)[C@H](CCCNC(=N)N)NC(=O)[C@H](CCCNC(=N)N)NC(=O)[C@H](CCCNC(=N)N)NC(=O)[C@H](CCCNC(=N)N)NC(=O)[C@H](CCCNC(=N)N)NC(=O)[C@H](CCCNC(=N)N)NC(=O)[C@H](CCCNC(=N)N)NC(=O)[C@H](CCCNC(=N)N)NC(=O)[C@H](CCCNC(=N)N)NC(=O)[C@H](CCCNC(=N)N)NC(=O)[C@@H](N)CCCNC(=N)N)C(=O)O", "note": "[NP351]", "values": [
      {"measurement": "MIC", "setting": "C. albicans", "result": 4, "unit": "µM"},
      {"measurement": "MIC", "setting": "C. krusei; C. krusei strain NCPF3953", "result": 32, "unit": "µM"}
    ]},
    {"molecule": "N=C(N)NCCC[C@H](NC(=O)[C@H](CCCNC(=N)N)NC(=O)[C@H](CCCNC(=N)N)NC(=O)[C@H](CCCNC(=N)N)NC(=O)[C@H](CCCNC(=N)N)NC(=O)[C@H](CCCNC(=N)N)NC(=O)[C@H](CCCNC(=N)N)NC(=O)[C@H](CCCNC(=N)N)NC(=O)[C@H](CCCNC(=N)N)NC(=O)[C@H](CCCNC(=N)N)NC(=O)[C@@H](N)CCCNC(=N)N)C(=O)O", "note": "[NP317]", "values": [
      {"measurement": "MIC, Candida albicans NCTC3179", "setting": "C. albicans", "result": 512, "unit": "µM"},
      {"measurement": "MIC, Candida krusei NCPF3953", "setting": "C. krusei", "result": 32, "unit": "µM"},
      {"measurement": "MIC", "setting": "C. parapsilosis", "result": 256, "unit": "µM"},
      {"measurement": "MIC", "setting": "Malasezzia furfur", "result": "<15.6", "unit": "µM"},
      {"measurement": "MIC", "setting": "Trichophyton rubrum", "result": 0.25, "unit": "µM"}
    ]},
    {"molecule": "RWRWR [NP320, RWRWR]", "values": [
      {"measurement": "MIC, Candida albicans NCTC3179", "setting": "C. albicans", "result": ">2000", "unit": "µM"}
    ]}
  ]
}
